# Measurements taken from PubChem BioAssay (NCI).
# Several values for one entry are separate records, joined by “and”; a condition that tells them apart may be missing. Identical values can stand only once.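 48-hour exposure; five concentrations; linearly interpolated endpoints. Here, GI50 denotes the concentration required for 50% inhibition of growth. Definition used: TGI = concentration required for complete inhibition of growth.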
# Key:
# Experiment in all cases: NCI tumour cell line growth inhibition, 48 h
# SNB-78 CNS = tested on: SNB-78 CNS
# DMS 273 small cell lung = tested on: DMS 273 small cell lung
# XF 498 CNS = tested on: XF 498 CNS
# KM20L2 colon = tested on: KM20L2 colon
# DLD-1 colon = tested on: DLD-1 colon
# M19-MEL melanoma = tested on: M19-MEL melanoma
# LXFL 529 NSCLC = tested on: LXFL 529 NSCLC
# P388/ADR leukemia = tested on: P388/ADR leukemia
# SN12K1 renal = tested on: SN12K1 renal
# HOP-18 NSCLC = tested on: HOP-18 NSCLC
# P388 leukemia = tested on: P388 leukemia
# RXF-631 renal = tested on: RXF-631 renal
Compound,TGI (SNB-78 CNS),TGI (DMS 273 small cell lung) [nM],TGI (XF 498 CNS) [nM],TGI (KM20L2 colon),TGI (DLD-1 colon),TGI (M19-MEL melanoma),TGI (LXFL 529 NSCLC),TGI (P388/ADR leukemia) [nM],TGI (SN12K1 renal) [nM],TGI (HOP-18 NSCLC) [nM],TGI (P388 leukemia) [nM],GI50 (SNB-78 CNS),GI50 (DMS 273 small cell lung) [nM],GI50 (KM20L2 colon),GI50 (DLD-1 colon),GI50 (M19-MEL melanoma),GI50 (LXFL 529 NSCLC),GI50 (HOP-18 NSCLC) [nM],GI50 (RXF-631 renal) [nM],TGI (RXF-631 renal) [nM]
NC(=O)c1cccc([N+](=O)[O-])c1,> 100000 nM,> 100000,> 100000,> 100000 nM,> 100000 nM,> 100000 nM,> 100000 nM,,,,,,,,,,,,,
COc1cc2ccc(=O)oc2cc1O,> 625000 nM,99600,337000,614000 nM,552000 nM,328000 nM,,103000,236000,521000,233000,,,,,,,,,
COc1c(O)c(C=O)c2c(O)c(-c3c(C)cc4c(C(C)C)c(OC)c(O)c(C=O)c4c3O)c(C)cc2c1C(C)C,52300 nM,14900,,19900 nM,15800 nM,12400 nM,12000 nM,,,,,,,,,,,,,
[Cl][Sn]([c]1ccccc1)([c]1ccccc1)[c]1ccccc1,439 nM and 85.1 nM,76.1,,110 nM and 45.4 nM,140 nM and 28.2 nM,96.9 nM and 43 nM,131 nM and 79.8 nM,,,113,,84.7 nM and 21.9 nM,28.3,34 nM and 18.6 nM,37.8 nM and < 10 nM,30.6 nM and 18.1 nM,35.3 nM and 22.7 nM,29.3,47.2,149
C/C=C/c1cc(=O)c([C@@H]2OC(=O)c3cc(OC)cc(OC)c32)co1,,,,> 100000 nM,,> 100000 nM,91600 nM,,,,,,,,,,,,,
